Results from patent publication US20220354929A1, “PEPTIDES AND USES THEREOF” (LATERAL IP PTY LTD, priority 2019, published 2022).
Values joined by “and” are separate entries in the source; they are usually repeats but may differ in a detail not shown here. Equal entries are not always repeated. “Also recorded” adds a separate entry of the source.

How the values were obtained:
[1] = system: Chung model of neuropathic pain; assay: paw withdrawal threshold (von Frey) in Chung model of neuropathic pain, oral or intramuscular administration; type: in vivo, rat; conditions: for paw withdrawal threshold (PWT) / reversal of mechanical allodynia: 2 hours after administration, ipsilateral side
Source text: Chung model of neuropathic pain was used to compare the in vivo efficacy of LAT8881 and LAT7771 administered orally or intramuscularly.
The spinal nerve ligation model (Chung model) was first reported by Kim and Chung (1992; Pain, 50(3):355-63) and involves a single tight ligation of the L5 spinal nerve. […] This model has been used as a “gold standard' model for assessing the efficacy of novel compounds targeting neuropathic pain.
Adult male Sprague-Dawley rats, 8-9 weeks old, weighing 220-250 g at the time of surgery, were anaesthetised with 3% isoflurane mixed with oxygen followed by an intramuscular injection of a mixture of ketamine and xylazine. The back was shaved and sterilised with povidone-iodine soaked cotton balls. The L5 spinal nerve was carefully isolated and tightly located with 6/0 silk suture and the wound was closed in layers. The single-dose antibiotics (Amoxipen, 100 mg/kg, i.p.) was routinely given for prevention of infection after surgery.
The animals were placed in individual Perspex boxes on a raised metal mesh for at least 40 minutes. Starting with the filament of lowest force (1 g), each filament was applied perpendicularly to the centre of the ventral surface of the paw until slightly bent for 6 seconds. If the animal withdrew or lifted its paw upon stimulation, a von Frey hair with force immediately lower than that tested was subsequently used. If no response was observed, then a hair with force immediately higher was tested. The lowest amount of force required to induce reliable responses (positive in 2 out of 3 trials) was recorded as the value of […] (PWT).
PWT was assessed once daily for three days before surgery and once a week for monitoring the development of mechanical allodynia.
All drug tests were carried out on the 13th to 17th day after surgery. All drug dosing was ‘blindly’ carried out by a second experimenter. The test compounds were administered and PWT was assessed before and 2 hours following drug or vehicle (5% DMSO) administration.

[2] = system: dorsal horn neurones; assay: whole-cell patch clamp recording in spinal cord slices from Chung models of neuropathic pain: membrane properties of dorsal horn neurones; type: cell-based, rat; conditions: for Membrane Potential, mean in presence of peptide: ipsilateral to injury; for Normalised Input Resistance, mean in presence of peptide / Normalised Input Resistance, ΔIR: control = 100; for reversal potential of peptide-induced response (intersection of VI relations): individual neurones; for Normalised Membrane Potential, mean in presence of peptide / Normalised Membrane Potential, ΔVm: rest = 100
Source text: (§1) An in vitro spinal cord slice with intact dorsal root afferents combined with single-cell whole-cell patch clamp electrophysiological recording techniques was used to assess the electrophysiological properties of the peptides having the amino acid sequence of SEQ ID NO:2, 3, 4 and 5.
The spinal nerve ligation model (Chung model) was first reported by Kim and Chung (1992; Pain, 50(3):355-63) and involves a single tight ligation of the L5 spinal nerve. […] This model has been used as a “gold standard” model for assessing the efficacy of novel compounds targeting neuropathic pain.
Adult male Sprague-Dawley rats, 8-9 weeks old, weighing 220-250 g at the time of surgery, were purchased from Charles River UK Ltd. The animals were housed in groups of 4 in an air-conditioned room on a 12-hour light/dark cycle. Food and water were available ad libitum. They were allowed to acclimatise to the experimental environment for three days by leaving them on a raised metal mesh for at least 40 min. The baseline paw withdrawal threshold (PWT) was examined using a series of graduated von Frey hairs for 3 consecutive days before surgery and re-assessed on the 6th to 8th day after surgery and on the 12th to 14th day after surgery before drug dosing. Each rat was anaesthetized with 5% isoflurane mixed with oxygen (2L per min) followed by an intramuscular (i.m.) injection of ketamine 90 mg/kg plus xylazine 10 mg/kg. The back was shaved and sterilized with povidone-iodine. The animal was placed in a prone position and a para-medial incision was made on the skin covering the L4-6 level. The L5 spinal nerve was carefully isolated and tightly ligated with 6/0 silk suture. The wound was then closed in layers after a complete hemostasis. A single dose of antibiotics (Amoxipen, 15 mg/rat, i.p.) was routinely given for prevention of infection after surgery. The animals were placed in a temperature-controlled recovery chamber until fully awake before being returned to their home cages.
(§2) Chung model rats, aged 8 to 12 weeks, were housed in an air-conditioned room on a 12 hour light/dark cycle with food and water available ad libitum. The rats were terminally anaesthetized using isofluorane and decapitated. The vertebral column, rib cage and surrounding tissues were rapidly removed and pinned under ice-cold (<4° C.), high sucrose-containing artificial cerebrospinal fluid (aCSF) comprising: 127 mM sucrose, 1.9 mM KCl, 1.2 mM KH2PO4, 0.24 mM CaCl2, 3.9 mM MgCl2, 26 mM NaHCO3, 10 mM D-glucose and 0.5 mM ascorbic acid. A laminectomy was performed and the spinal cord and associated roots gently dissected and teased out of the spinal column and surrounding tissues. Dura and pia mater and ventral roots were subsequently removed with fine forceps and the spinal cord hemisected. Care was taken to ensure dorsal root inputs to the spinal cord were maintained. The hemisected spinal cord-dorsal root preparations were secured to a tissue slicer and spinal cord slices (400 to 450 μm thick) with dorsal roots attached were cut in chilled (<4° C.) high sucrose aCSF using a Leica VT1000s microtome.
(§3) Slices were transferred to a small beaker containing ice cold aCSF with 127 mM NaCl, 1.9 mM KCl, 1.2 mM KH2PO4, 1.3 mM MgCl2, 2.4 mM CaCl2, 26 mM NaHCO3 and 10 mM D-glucose, and rapidly warmed to 35° C. ±1° C. in a temperature-controlled water bath over a 20 minute period, then subsequently removed and maintained at room temperature (22° C. ±2° C.) prior to electrophysiological recording. Electrophysiological recording was performed in aCSF comprising 127 mM NaCl, 1.9 mM KCl, 1.2 mM KH2PO4, 1.3 mM MgCl2, 2.4 mM CaCl2, 26 mM NaHCO3 and 10 mM D-glucose.
Whole-cell recordings were performed at 34-35° C. from Lamina I or II neurones in the dorsal horn of the spinal cord slices using Axopatch 1D and/or Multiclamp 700B amplifies and using the “blind” version of the patch-clamp technique. […]

[3] = system: dorsal root afferent-mediated synaptic inputs to dorsal horn neurones; assay: whole-cell recording in spinal cord slices from Chung models: dorsal root afferent-mediated synaptic inputs (evoked EPSPs/IPSPs); type: cell-based, rat; conditions: for effect on dorsal root-evoked EPSPs / excitatory synaptic transmission (in words) / effect on dorsal root-evoked IPSPs / inhibitory synaptic transmission (in words): peptide 5 μM, dorsal root stimulation 0.1 Hz
Protocol: as §1, §2, §3
Whole-cell recordings were performed at 34-35° C. from Lamina I or II neurones in the dorsal horn of the spinal cord slices using Axopatch 1D and/or Multiclamp 700B amplifies and using the “blind” version of the patch-clamp technique.
Patch pipettes were pulled from thin-walled borosilicate glass with resistances of between 3 and 8 MS2 when filled with intracellular solution (140 mM potassium gluconate, 10 mM KCl, 1 mM EGTA-Na, 10 mM HEPES, 4 mM Na2ATP, 0.3 mM Na-GTP). The peptides of SEQ ID NOs:2, 3, 4 or 5 (LAT7771, LAT7772, LAT7773 or LAT7774) were diluted in the tissue bath at a concentration of 5 μM.
A concentric bipolar stimulating electrode was placed appropriately either on the dorsal root or dorsal root entry zone to evoke postsynaptic potentials/currents in recorded cells (see FIG. 1). […] EPSPs/EPSCs were confirmed as monosynaptic on the basis of being characterised by a constant latency and rise-time with few failures.
Recordings were monitored on an oscilloscope and stored on digital audio tapes for later off-line analysis. In addition, data were low-pass filtered at 2-5 kHz, (1 kHz for voltage-clamp data), digitized at 2-10 kHz and stored on a PC running pCLAMP 10 data acquisition software (Axon Instruments). Analysis of electrophysiological data was carried out using Clampfit 10 software.

[4] = solubility in distilled water
[5] = LAT8881, concentration not given, one neurone

Row | Sequence | paw withdrawal threshold (PWT) / reversal of mechanical allodynia ([1]; 10 mg/kg intramuscularly (IM)) | paw withdrawal threshold (PWT) / reversal of mechanical allodynia ([1]; 10 mg/kg orally (PO)) | effect on inward rectification (in words) ([2]; peptide 5 μM) | effect on neuronal input resistance (in words) ([2]; peptide 5 μM) | Input Resistance, mean in presence of peptide ([2]; peptide 5 μM, all cells) | Membrane Potential, mean in presence of peptide ([2]; peptide 5 μM, all cells) | Normalised Input Resistance, mean in presence of peptide ([2]; peptide 5 μM) | Normalised Input Resistance, ΔIR ([2]; peptide 5 μM) | reversal potential of peptide-induced response (intersection of VI relations) ([2]; peptide 5 μM) | Normalised Membrane Potential, mean in presence of peptide ([2]; peptide 5 μM) | Normalised Membrane Potential, ΔVm ([2]; peptide 5 μM) | effect on dorsal root-evoked EPSPs / excitatory synaptic transmission (in words) [3] | effect on dorsal root-evoked IPSPs / inhibitory synaptic transmission (in words) [3] | other results
1 | CRIIHNNNC [LAT7771, C-terminal fragment of human prolactin spanning residues 219-227 of human prolactin precursor] | significantly increased the PWT | significantly increased the PWT | enhancement or increase in the strength of inward rectification; also recorded: enhanced inward rectification | little change in neuronal input resistance; also recorded: marginal increase in neuronal input resistance | 447.6 MΩ | −53.8±2.8 mV and −53.8 mV | 94.8 | 5.2 | −55 mV (2×) and −45 mV and −40 mV | 94.8 | 5.2 | In four neurones, dorsal root evoked EPSPs at a frequency of 0.1 Hz were reduced; also recorded: consistently reduced dorsal root-evoked EPSPs; also recorded: EPSPs were suppressed | In two of these neurones, suppression of EPSPs uncovered or activated IPSPs; also recorded: in two neurones promoted inhibitory synaptic transmission; also recorded: enhanced inhibitory synaptic transmission | analgesic properties in vivo ([1]; compared with LAT8881): comparable to that of LAT8881; effect on membrane potential / postsynaptic membrane properties (in words) ([2]; peptide 5 μM): little effect on a further 3 dorsal horn neurones; also recorded: principally induced membrane depolarisation; also recorded: membrane depolarisation and an increase in spontaneous firing; also recorded: minimal membrane depolarisation; also recorded: little or no effect on postsynaptic properties; change in neuronal input resistance ([2]; peptide 5 μM vs control): 15.8 ± 36.1 MΩ; ΔIR, change in neuronal input resistance ([2]; peptide 5 μM vs control, table prints control minus drug, text the magnitude): −15.8 MΩ; neuronal input resistance in the presence of peptide ([2]; peptide 5 μM, all cells): 447.6±119.4 MS2; effect on dorsal root-evoked IPSPs (in words) ([3]; prolactin 500 nM, 0.1 Hz and 5 Hz): lack of effect
2 | YLRIVQCRSVEGSCGF [LAT8881, human growth hormone derived analgesic compound of PCT/AU2019/050020, reference compound] | reversed mechanical allodynia; also recorded: significantly increased the PWT | reversed mechanical allodynia; also recorded: significantly increased the PWT |  |  |  |  |  |  |  |  |  |  |  | effect on postsynaptic properties (in words) ([2]; LAT8881, concentration not given, one neurone, after wash of LAT7771): little or no effect on postsynaptic properties; effect on dorsal root-evoked EPSPs (in words) [3, 5]: suppressing EPSPs; effect on inhibitory synaptic transmission / IPSPs (in words) [3, 5]: partly mimicked by LAT8881; also recorded: enhanced inhibitory synaptic transmission
3 | CRIVYDSNC [LAT7773] |  |  | enhancing inward rectification; also recorded: enhanced inward rectification | variable effects on input resistance inducing a decrease in 4 neurones and an increase in 5 neurones; also recorded: small increase in neuronal input resistance | 373.5±103.6 MΩ and 373.5 MΩ | −50.3±3.0 mV and −50.3 mV | 99.9 | 0.1 | no clear reversal potential in 7 neurones; also recorded: around −93 mV; also recorded: around −92 mV | 88.4 | 11.6 | In three neurones electrical stimulation of dorsal roots (0.1 Hz) evoked EPSPs that were suppressed; also recorded: In two other neurones EPSPs, and in one of these IPSPs, were enhanced; also recorded: remaining two neurones showed no change; also recorded: in some neurones depressed whilst in others they were clearly potentiated; also recorded: reducing dorsal root afferent-mediated synaptic inputs; also recorded: little effect on dorsal root afferent-mediated excitatory synaptic transmission; also recorded: increase in dorsal root afferent-mediated synaptic transmission | in one of these IPSPs, were enhanced; also recorded: both EPSPs and IPSPs were enhanced | membrane hyperpolarisation in individual neurones ([2]; peptide 5 μM, responding neurones): 7.6 mV; solubility in distilled water [4]: soluble
